Assay results from article PMC4823785, “A Tricholoma matsutake Peptide with Angiotensin Converting Enzyme Inhibitory and Antioxidative Activities and Antihypertensive Effects in Spontaneously Hypertensive Rats” (Scientific Reports, 2016).
Read-outs that look alike come from different tables or passages of the source. Where no end group is shown, it is not given here.

Experiments:
[1] = system: ACE; settings: cited from earlier work
[2] = target: T1, ACE (Oryctolagus cuniculus, UniProt P12822); experiment: Assay of ACE inhibitory activity (spectrophotometric, HHL substrate); format: biochemical, rabbit; settings: chemically synthesized peptides; means ± S.D. of three determinations
T1 construct: ACE was prepared using fresh rabbit lungs according to the protocol reported by Hayakari et al; from tissue; host or cells: fresh rabbit lungs (supernatant of homogenate)
T1 sequence (P12822 34-1310): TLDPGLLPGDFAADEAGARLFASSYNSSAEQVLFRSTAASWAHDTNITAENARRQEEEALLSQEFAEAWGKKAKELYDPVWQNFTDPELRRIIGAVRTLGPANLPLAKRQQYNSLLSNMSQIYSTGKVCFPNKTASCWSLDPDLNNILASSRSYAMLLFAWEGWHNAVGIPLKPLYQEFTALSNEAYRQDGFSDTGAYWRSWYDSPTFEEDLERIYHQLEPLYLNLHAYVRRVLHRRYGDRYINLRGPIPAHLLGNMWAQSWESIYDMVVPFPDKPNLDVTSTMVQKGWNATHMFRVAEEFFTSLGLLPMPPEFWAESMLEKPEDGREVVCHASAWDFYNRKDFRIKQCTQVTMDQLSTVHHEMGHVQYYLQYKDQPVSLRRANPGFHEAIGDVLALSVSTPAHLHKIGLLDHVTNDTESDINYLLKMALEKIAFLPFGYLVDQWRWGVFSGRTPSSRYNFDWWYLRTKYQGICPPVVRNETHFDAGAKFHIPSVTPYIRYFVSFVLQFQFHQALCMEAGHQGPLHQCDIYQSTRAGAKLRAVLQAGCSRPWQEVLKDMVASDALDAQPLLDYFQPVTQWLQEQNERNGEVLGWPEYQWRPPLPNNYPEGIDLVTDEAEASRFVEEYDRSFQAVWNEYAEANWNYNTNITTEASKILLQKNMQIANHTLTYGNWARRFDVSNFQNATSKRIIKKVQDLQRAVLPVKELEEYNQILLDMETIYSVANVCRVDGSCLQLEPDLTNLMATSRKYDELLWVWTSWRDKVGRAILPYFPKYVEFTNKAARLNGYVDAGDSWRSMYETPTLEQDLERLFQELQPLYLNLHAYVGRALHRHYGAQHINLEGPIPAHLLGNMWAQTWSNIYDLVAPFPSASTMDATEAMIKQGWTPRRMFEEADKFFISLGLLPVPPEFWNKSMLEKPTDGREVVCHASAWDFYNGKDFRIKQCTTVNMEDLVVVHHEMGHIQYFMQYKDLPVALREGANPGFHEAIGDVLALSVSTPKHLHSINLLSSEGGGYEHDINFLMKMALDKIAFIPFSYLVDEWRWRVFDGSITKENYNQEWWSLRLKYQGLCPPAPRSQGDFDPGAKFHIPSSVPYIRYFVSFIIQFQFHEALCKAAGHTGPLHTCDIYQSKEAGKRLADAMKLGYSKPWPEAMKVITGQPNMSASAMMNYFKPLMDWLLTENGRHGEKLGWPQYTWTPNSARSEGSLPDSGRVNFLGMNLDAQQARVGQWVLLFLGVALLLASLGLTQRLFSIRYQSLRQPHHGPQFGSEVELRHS
Description: ACE was prepared using fresh rabbit lungs according to the protocol reported by Hayakari et al.[35] with some modifications. After washing with ice-cold 0.15 M NaCl, the rabbit lungs without connective tissues were cut up to small pieces and homogenized in 10 volumes of ice-old 0.1 M sodium borate buffer (pH 8.3) containing 0.25 M sucrose and 0.1 mM PMSF. The homogenate was centrifuged at 9,000 rpm for 40 min at 4 °C after dialysis at 4 °C overnight in 0.1 M sodium borate buffer (pH 8.3). The resulting supernatant was centrifuged at 9,000 rpm for 40 min at 4 °C again. The ACE activity in the supernatant was determined and the supernatant was aliquoted and then stored at −20 °C for further experiments.
The ACE inhibitory activity was assayed by using a spectrophotometric method following the protocol described by Cushman[36] with modifications. Briefly, an aliquot (20 μL) of the sample was mixed with 20 μL ACE and 150 μL 5 mM HHL in 0.1 M borate buffer (pH 8.3) containing 0.3 M NaCl. The reaction mixture was incubated at 37 °C for 30 min, and then the reaction was terminated by adding 500 μL 1 M HCl. The hippuric acid formed was extracted with 1.2 mL ethyl acetate and centrifuged at 4,000 rpm for 10 min. Then 800 μL of the upper organic phase was heat-evaporated at 95 °C for 35 min to remove ethyl acetate. The dried residue was dissolved in 800 μL distilled water and vortex mixed, and the absorbance was measured spectrophotometrically at 228 nm to estimate ACE inhibitory activity. ACE-inhibitory activity was calculated by using the equation 1: […]
where A was the absorbance of the solution containing ACE and inhibitor, B was the absorbance of solution containing ACE and inhibitor but terminated in advance, C was the absorbance of the solution containing ACE without inhibitor, and D was the absorbance of the solution containing ACE without inhibitor but terminated in advance. The concentration of the inhibitor required to inhibit 50% of the ACE activity under the above assay conditions was defined as IC50.

[3] = system: spontaneously hypertensive rats; experiment: Antihypertensive action in spontaneously hypertensive rats (SBP, tail-cuff); settings: SHRs, oral, 100 mg/kg BW, at 2 h
Description: All experiments were performed in accordance with the Regulations of Experimental Animal Administration issued by the State Committee of Science and Technology of the People’s Republic of China and also with the approval of the Animal Experimentation Ethics Committee of The Chinese University of Hong Kong which had been procured prior to the animal experiments. SHRs with systolic blood pressure (SBP) higher than 180 mmHg were randomly divided into six groups after acclimation for 1 week. During the acclimatization period prior to the test, the blood pressures of the rats were measured four times weekly. Each group containing four rats. […] The group treated with crude water extract of T. matsutake received the extract at two different concentrations: 200 mg/kg body weight and 400 mg/kg body weight. SBP was measured thrice at each of the following time points: 0, 0.5, 2, 4, 6 and 8 h after drug/sample administration, using a tail-cuff method with a programmable BP-100A electro-sphygmomanometer (Chengdu Taimeng Software Co., Ltd., Chengdu, China).

[4] = peptide from Tricholoma giganteum
[5] = peptide from Pleurotus cystidiosus
[6] = mushroom species printed in the row: Tricholoma matsutake, ref not given
[7] = peptide from Hypsizygus marmoreus

In the case of GQGGP, the IC50 ([1]; peptide from Pholiota adiposa) is given as 100 nM.

For RLSGQTIEVTSEYLFRH, the IC50 ([1]; peptide from P. cornucopiae) is given as 560 nM and the “Mode of inhibitory of ACE” value ([1]; peptide from P. cornucopiae) is given as “Non-competitive”.

Work on ILSKLK [ILSKLK] yielded an IC50 [2] of 4020 ± 310 nM.

With C[C@H](CS)C(=O)N1CCC[C@H]1C(=O)O [captopril] the “maximum decrease in SBP” value [3] was 38 mm Hg.

For GQP, the IC50 [1, 4] is listed as 130 nM and the “Mode of inhibitory of ACE” value [1, 4] is listed as “Competitive”.

Compound IISKIK [IISKIK] has an IC50 [2] of 1190 ± 260 nM.

Compound LIDKVVK [LIDKVVK] has an IC50 [2] of 620 ± 420 nM.

For GPSMR, the IC50 [1, 5] is listed as 278000 nM and the “Mode of inhibitory of ACE” value [1, 5] is listed as “Competitive”.

For VIQKYP, the IC50 ([1]; peptide from Grifola frondosa) is given as 120 nM and the “Mode of inhibitory of ACE” value ([1]; peptide from Grifola frondosa) is given as “Competitive”.

For AHEPVK, the IC50 [1, 6] is listed as 63000 nM, the “Mode of inhibitory of ACE” value [1, 6] is listed as “Competitive” and the IC50 [1, 5] is listed as 62800 nM. For the same compound, the “Mode of inhibitory of ACE” value [1, 5] was “Competitive”.

In the case of LSMGSASLSP, the IC50 [1, 7] is given as 330 nM and the “Mode of inhibitory of ACE” value [1, 7] is given as “Non-competitive”.

In the case of PSSNK, the IC50 ([1]; peptide from Agaricus bisporus) is given as 129000 nM and the “Mode of inhibitory of ACE” value ([1]; peptide from Agaricus bisporus) is given as “Non- competitive”.

In the case of RIGLF, the IC50 ([1]; peptide from Agaricus bisporus) is listed as 116000 nM and the “Mode of inhibitory of ACE” value ([1]; peptide from Agaricus bisporus) is listed as “Competitive”.

With LLVTLKK [LLVTLKK] the IC50 [2] was 950 ± 120 nM.

WALKGYK [TMP, WALKGYK] showed an IC50 [2] of 400 ± 290 nM.

In the case of RLPSEFDLSAFLRA, the IC50 ([1]; peptide from P. cornucopiae) is listed as 280 nM and the “Mode of inhibitory of ACE” value ([1]; peptide from P. cornucopiae) is listed as “Competitive”.
